pEC50: −log10 of the molar value. Starred links: 1 amine or outer side, 2 acyl side, 3 side chain; linkers in the order of their positions; H or OH if unused. Non-standard residues stand in square brackets, D forms with d. Residues, ends and D or L forms follow the SMILES beside them. Groups on a side chain read outwards from the residue. *: point of attachment. C20 diacid = O=C(O)CCCCCCCCCCCCCCCCCCC(=O)*; C18 diacid = O=C(O)CCCCCCCCCCCCCCCCC(=O)*; γGlu = O=C(O)[C@H](CCC(=O)[*:2])N[*:1]; αMeF = C[C@](N)(Cc1ccccc1)C(=O)O; AEEA = NCCOCCOCC(=O)O; Aib = CC(C)(N)C(=O)O
Tests used:
[1] = target: human GLP-1 receptor (hGLP-1R) (Homo sapiens, UniProt P43220); experiment: cAMP production (HTRF) in CHO cells expressing hGLP-1R; format: cell-based; set-up: expressed in transfected cells; details: for pEC50: Table 6, peptides modified at position 17, cAMP in CHO hGLP-1R cells, geometric mean, read-out: hGLP-1R EC50; for % Relative Potency Ratio: Table 6, % GLP-1R activity relative to GLP-1 / % GlucR activity relative to glucagon
Chain of human GLP-1 receptor (hGLP-1R) (P43220 24-463): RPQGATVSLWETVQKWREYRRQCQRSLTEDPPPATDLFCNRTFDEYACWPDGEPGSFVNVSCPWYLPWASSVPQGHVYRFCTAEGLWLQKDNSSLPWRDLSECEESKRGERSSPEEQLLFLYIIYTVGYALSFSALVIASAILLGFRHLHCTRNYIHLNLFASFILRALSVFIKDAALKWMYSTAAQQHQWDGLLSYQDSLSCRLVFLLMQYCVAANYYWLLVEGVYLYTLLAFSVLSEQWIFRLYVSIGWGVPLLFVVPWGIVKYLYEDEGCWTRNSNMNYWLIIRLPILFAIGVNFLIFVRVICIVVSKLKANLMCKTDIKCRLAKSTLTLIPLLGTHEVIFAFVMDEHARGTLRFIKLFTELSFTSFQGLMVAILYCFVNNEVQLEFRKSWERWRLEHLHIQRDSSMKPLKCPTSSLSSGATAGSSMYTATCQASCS
In short: (§1)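 Read-out: HTRF cAMP (anti-cAMP cryptate donor, cAMP-d2 acceptor in conjugate/lysis buffer), converted to % Delta F and fitted by 4-parameter logistic for EC50. Cell densities were 1×10^5 cells/mL (hGLP-1R) or 2×10^5 cells/mL (hGCGR). Stimulation lasted 30 min at room temperature.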

[2] = target: human glucagon receptor (hGCGR) (Homo sapiens, UniProt P47871); experiment: cAMP production (HTRF) in CHO cells expressing hGCGR; format: cell-based; set-up: expressed in transfected cells; details: Table 6, peptides modified at position 17; cAMP in CHO hGCGR cells; geometric mean; read-out: hGluc-R EC50
Chain of human glucagon receptor (hGCGR) (P47871 26-477): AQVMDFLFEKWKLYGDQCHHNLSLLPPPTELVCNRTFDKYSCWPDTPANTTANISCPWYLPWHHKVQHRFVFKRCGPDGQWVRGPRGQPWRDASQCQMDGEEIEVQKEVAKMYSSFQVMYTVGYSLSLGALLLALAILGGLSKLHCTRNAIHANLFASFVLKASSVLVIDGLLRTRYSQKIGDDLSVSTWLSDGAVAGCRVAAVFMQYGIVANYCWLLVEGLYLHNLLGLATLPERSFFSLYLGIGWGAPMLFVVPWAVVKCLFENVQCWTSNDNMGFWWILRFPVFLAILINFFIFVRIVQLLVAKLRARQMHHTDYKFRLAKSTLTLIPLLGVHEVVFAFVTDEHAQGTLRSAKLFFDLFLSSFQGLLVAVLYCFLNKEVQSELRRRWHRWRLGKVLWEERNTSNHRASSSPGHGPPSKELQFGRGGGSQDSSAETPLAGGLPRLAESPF
In short: as §1

pEC50 [1] | % Relative Potency Ratio [1] | pEC50 [2] | SMILES
10.11 | 11.5 | 9.34 | CC(C)C[C@H](NC(=O)[C@H](Cc1c[nH]c2ccccc12)NC(=O)[C@H](C)NC(=O)[C@@H](NC(=O)[C@H](Cc1ccccc1)NC(=O)[C@H](CC(=O)O)NC(=O)[C@H](CCCNC(=N)N)NC(=O)[C@H](C)NC(=O)[C@H](CCCNC(=N)N)NC(=O)[C@H](CCCCNC(=O)COCCOCCNC(=O)COCCOCCNC(=O)CC[C@H](NC(=O)CCCCCCCCCCCCCCCCCCC(=O)O)C(=O)O)NC(=O)[C@@H](NC(=O)[C@H](CC(=O)O)NC(=O)[C@H](CC(C)C)NC(=O)[C@](C)(Cc1ccccc1)NC(=O)[C@H](CCCCN)NC(=O)[C@H](CO)NC(=O)[C@@H](NC(=O)[C@H](CC(=O)O)NC(=O)[C@H](CO)NC(=O)[C@@H](NC(=O)[C@H](Cc1ccccc1)NC(=O)[C@@H](NC(=O)CNC(=O)[C@H](CCC(N)=O)NC(=O)C(C)(C)NC(=O)[C@@H](N)Cc1c[nH]cn1)[C@@H](C)O)[C@@H](C)O)C(C)C)[C@@H](C)O)C(C)C)C(=O)N[C@@H](CC(C)C)C(=O)NC(C)(C)C(=O)N[C@H](C(=O)N[C@@H](CCC(=O)O)C(=O)O)[C@@H](C)O [Peptide 410] (H-H[Aib]QGTFTSDVSK[αMeF]LDTK([AEEA-AEEA-γGlu-C20 diacid])RARDFVAWLL[Aib]TE-OH; N-terminus assumed)
10.01 | 7.6 | 9.42 | CC(C)C[C@H](NC(=O)[C@H](Cc1c[nH]c2ccccc12)NC(=O)[C@H](C)NC(=O)[C@@H](NC(=O)[C@H](Cc1ccccc1)NC(=O)[C@H](CC(=O)O)NC(=O)[C@H](CCC(N)=O)NC(=O)[C@H](C)NC(=O)[C@H](CCCNC(=N)N)NC(=O)[C@H](CCCCNC(=O)COCCOCCNC(=O)COCCOCCNC(=O)CC[C@H](NC(=O)CCCCCCCCCCCCCCCCC(=O)O)C(=O)O)NC(=O)[C@@H](NC(=O)[C@H](CC(=O)O)NC(=O)[C@H](CC(C)C)NC(=O)[C@](C)(Cc1ccccc1)NC(=O)[C@H](CCCCN)NC(=O)[C@H](CO)NC(=O)[C@@H](NC(=O)[C@H](CC(=O)O)NC(=O)[C@H](CO)NC(=O)[C@@H](NC(=O)[C@H](Cc1ccccc1)NC(=O)[C@@H](NC(=O)CNC(=O)[C@H](CCC(N)=O)NC(=O)C(C)(C)NC(=O)[C@@H](N)Cc1c[nH]cn1)[C@@H](C)O)[C@@H](C)O)C(C)C)[C@@H](C)O)C(C)C)C(=O)N[C@@H](CCC(=O)O)C(=O)N[C@@H](C)C(=O)NCC(=O)NCC(=O)O [Peptide 411] (H-H[Aib]QGTFTSDVSK[αMeF]LDTK([AEEA-AEEA-γGlu-C18 diacid])RAQDFVAWLEAGG-OH; N-terminus assumed)
9.73 | 4.2 | 9.40 | CC(C)C[C@H](NC(=O)[C@H](Cc1c[nH]c2ccccc12)NC(=O)[C@H](C)NC(=O)[C@@H](NC(=O)[C@H](Cc1ccccc1)NC(=O)[C@H](CC(=O)O)NC(=O)[C@H](CCC(N)=O)NC(=O)[C@H](C)NC(=O)[C@H](CCCNC(=N)N)NC(=O)[C@H](CCCCNC(=O)COCCOCCNC(=O)COCCOCCNC(=O)CC[C@H](NC(=O)CCCCCCCCCCCCCCCCCCC(=O)O)C(=O)O)NC(=O)[C@@H](NC(=O)[C@H](CC(=O)O)NC(=O)[C@H](CC(C)C)NC(=O)[C@](C)(Cc1ccccc1)NC(=O)[C@H](CCCCN)NC(=O)[C@H](CO)NC(=O)[C@@H](NC(=O)[C@H](CC(=O)O)NC(=O)[C@H](CO)NC(=O)[C@@H](NC(=O)[C@H](Cc1ccccc1)NC(=O)[C@@H](NC(=O)CNC(=O)[C@H](CCC(N)=O)NC(=O)C(C)(C)NC(=O)[C@@H](N)Cc1c[nH]cn1)[C@@H](C)O)[C@@H](C)O)C(C)C)[C@@H](C)O)C(C)C)C(=O)N[C@@H](CCC(=O)O)C(=O)N[C@@H](C)C(=O)NCC(=O)NCC(=O)O [Peptide 412] (H-H[Aib]QGTFTSDVSK[αMeF]LDTK([AEEA-AEEA-γGlu-C20 diacid])RAQDFVAWLEAGG-OH; N-terminus assumed)
9.39 | 5.0 | 8.99 | CC(C)C[C@H](NC(=O)[C@H](Cc1c[nH]c2ccccc12)NC(=O)[C@H](C)NC(=O)[C@@H](NC(=O)[C@H](Cc1ccccc1)NC(=O)[C@H](CC(=O)O)NC(=O)[C@H](CCC(N)=O)NC(=O)[C@H](C)NC(=O)[C@H](CCCNC(=N)N)NC(=O)[C@H](CCCCNC(=O)COCCOCCNC(=O)COCCOCCNC(=O)CC[C@H](NC(=O)CC[C@H](NC(=O)CCCCCCCCCCCCCCCCCCC(=O)O)C(=O)O)C(=O)O)NC(=O)[C@@H](NC(=O)[C@H](CC(=O)O)NC(=O)[C@H](CC(C)C)NC(=O)[C@](C)(Cc1ccccc1)NC(=O)[C@H](CCCCN)NC(=O)[C@H](CO)NC(=O)[C@@H](NC(=O)[C@H](CC(=O)O)NC(=O)[C@H](CO)NC(=O)[C@@H](NC(=O)[C@H](Cc1ccccc1)NC(=O)[C@@H](NC(=O)CNC(=O)[C@H](CCC(N)=O)NC(=O)C(C)(C)NC(=O)[C@@H](N)Cc1c[nH]cn1)[C@@H](C)O)[C@@H](C)O)C(C)C)[C@@H](C)O)C(C)C)C(=O)N[C@@H](CCC(=O)O)C(=O)N[C@@H](C)C(=O)NCC(=O)NCC(=O)O [Peptide 413]
10.49 | 1.6 | 10.57 | CC(C)C[C@H](NC(=O)[C@H](Cc1c[nH]c2ccccc12)NC(=O)[C@H](CCCNC(=N)N)NC(=O)[C@@H](NC(=O)[C@H](Cc1ccccc1)NC(=O)[C@H](CC(=O)O)NC(=O)[C@H](CCCNC(=N)N)NC(=O)[C@H](C)NC(=O)[C@H](CCCNC(=N)N)NC(=O)[C@H](CCCCNC(=O)COCCOCCNC(=O)COCCOCCNC(=O)CC[C@H](NC(=O)CCCCCCCCCCCCCCCCC(=O)O)C(=O)O)NC(=O)[C@H](CCCCN)NC(=O)[C@H](CC(=O)O)NC(=O)[C@H](CC(C)C)NC(=O)[C@](C)(Cc1ccccc1)NC(=O)[C@H](CCCCN)NC(=O)[C@H](CO)NC(=O)[C@@H](NC(=O)[C@H](CC(=O)O)NC(=O)[C@H](CO)NC(=O)[C@@H](NC(=O)[C@H](Cc1ccccc1)NC(=O)[C@@H](NC(=O)CNC(=O)[C@H](CCC(N)=O)NC(=O)C(C)(C)NC(=O)[C@@H](N)Cc1c[nH]cn1)[C@@H](C)O)[C@@H](C)O)C(C)C)C(C)C)C(=O)N[C@@H](CC(C)C)C(=O)NC(C)(C)C(=O)N[C@@H](CCC(=O)O)C(=O)O [Peptide 414] (H-H[Aib]QGTFTSDVSK[αMeF]LDKK([AEEA-AEEA-γGlu-C18 diacid])RARDFVRWLL[Aib]E-OH; N-terminus assumed)
10.83 | 40.6 | 9.52 | CC(C)C[C@H](NC(=O)[C@H](Cc1c[nH]c2ccccc12)NC(=O)[C@H](CCCNC(=N)N)NC(=O)[C@@H](NC(=O)[C@H](Cc1ccccc1)NC(=O)[C@H](CC(=O)O)NC(=O)[C@H](CCC(N)=O)NC(=O)[C@H](C)NC(=O)[C@H](CCCNC(=N)N)NC(=O)[C@H](CCCCNC(=O)COCCOCCNC(=O)COCCOCCNC(=O)CC[C@H](NC(=O)CCCCCCCCCCCCCCCCC(=O)O)C(=O)O)NC(=O)[C@H](CO)NC(=O)[C@H](CCC(=O)O)NC(=O)[C@H](CC(C)C)NC(=O)[C@](C)(Cc1ccccc1)NC(=O)[C@H](CCCCN)NC(=O)[C@H](CO)NC(=O)[C@@H](NC(=O)[C@H](CC(=O)O)NC(=O)[C@H](CO)NC(=O)[C@@H](NC(=O)[C@H](Cc1ccccc1)NC(=O)[C@@H](NC(=O)CNC(=O)[C@H](CCC(N)=O)NC(=O)C(C)(C)NC(=O)[C@@H](N)Cc1c[nH]cn1)[C@@H](C)O)[C@@H](C)O)C(C)C)C(C)C)C(=O)N[C@@H](CCC(=O)O)C(=O)N[C@@H](C)C(=O)NC(C)(C)C(=O)NCC(=O)O [Peptide 415] (H-H[Aib]QGTFTSDVSK[αMeF]LESK([AEEA-AEEA-γGlu-C18 diacid])RAQDFVRWLEA[Aib]G-OH; N-terminus assumed)

Reference: patent US20250353891A1 (MEDIMMUNE LIMITED, priority 2022, published 2025)
